Experimental data as given in patent US20050080113A1, “Medicinal compositions” (priority 2001, published 2005).

Compound	melting point
CC(=O)Nc1cc(-c2sc(C(C)OC(=O)c3ccccc3)nc2-c2cccc(C)c2)ccn1 (centres unmarked) [H 110, 1 [5 (2 acetylamino-4-pyridyl)-4 (3 methylphenyl)-1,3 thiazol-2 yl]ethyl benzoate]	110 to 113 °C
CC(=O)Nc1cc(-c2sc(C(C)O)nc2-c2cccc(C)c2)ccn1 (centres unmarked) [H 111-1, N-[4 [2 (1 hydroxyethyl)-4-(3 methylphenyl)-1,3 thiazol-5 yl]-2 pyridyl]acetamide]	99 to 102 °C
CC(=O)Nc1cc(-c2sc(C(C)O)nc2-c2cccc(Cl)c2)ccn1 (centres unmarked) [H 111-2, N-[4 [4 (3 chlorophenyl)-2-(1 hydroxyethyl)-1,3 thiazol-5 yl]-2 pyridyl]acetamide]	142 to 145 °C
CC(=O)Nc1cc(-c2sc(C(C)=O)nc2-c2cccc(Cl)c2)ccn1 [H 112, N-[4 [2 acetyl-4 (3-chlorophenyl)-1,3 thiazol-5 yl]-2 pyridyl]acetamide]	180 to 183 °C
CSCc1nc(-c2cccc(C)c2)c(-c2ccnc(N)c2)s1 [H 113-1, 4 [4 (3 methylphenyl)-2-(methylthio)methyl-1,3 thiazol-5 yl]-2 pyridylamine]	113 to 114 °C
Cc1cccc(-c2nc(C(C)(F)F)sc2-c2ccnc(N)c2)c1 [H 113-2, 4 [2 (1,1 difluoroethyl)-4 (3 methylphenyl)-1,3 thiazol-5 yl]-2 pyridylamine]	140 to 141 °C
CCc1nc(-c2cccc(C)c2)c(-c2ccnc(NC(=O)c3ccsc3)c2)s1 [L 39-1, N-[4 [2 ethyl-4 (3-methylphenyl)-1,3 thiazol-5 yl]-2 pyridyl]-3-thiophenecarboxamide]	99 to 101 °C
CCc1nc(-c2cccc(C)c2)c(-c2ccnc(NC(=O)c3ccc(OC)cc3)c2)s1 [L 39-2, N-[4 [2 ethyl-4 (3-methylphenyl)-1,3 thiazol-5 yl]-2 pyridyl]-4 methoxybenzamide]	124 to 125 °C
CCc1nc(-c2cccc(C)c2)c(-c2ccnc(NC(=O)c3ccc(C)cc3)c2)s1 [L 39-3, N-[4 [2 ethyl-4 (3-methylphenyl)-1,3 thiazol-5 yl]-2 pyridyl]-4 methylbenzamide]	105 to 106 °C
CCc1nc(-c2cccc(C)c2)c(-c2ccnc(NC(=O)c3cccc(F)c3)c2)s1 [L 39-4, N-[4 [2 ethyl-4 (3-methylphenyl)-1,3 thiazol-5 yl]-2 pyridyl]-3 fluorobenzamide]	101 to 102 °C
CCc1nc(-c2cccc(C)c2)c(-c2ccnc(NC(=O)c3ccc(F)cc3)c2)s1 [L 39-5, N-[4 [2 ethyl-4 (3-methylphenyl)-1,3 thiazol-5 yl]-2 pyridyl]-4 fluorobenzamide]	110 to 111 °C
CCc1nc(-c2cccc(C)c2)c(-c2ccnc(NC(=O)c3cc(Cl)cc(Cl)c3)c2)s1 [L 39-6, 3,5 dichloro-N-[4 [2 ethyl-4 (3 methylphenyl)-1,3 thiazol-5 yl]-2 pyridyl]benzamide]	77 to 78 °C
Cc1cccc(-c2nc(C3CCN(C)CC3)sc2-c2ccnc(NC(=O)c3ccccc3)c2)c1 [L 44, N-[4 [4 (3 methylphenyl)-2 (1 methylpiperidin-4 yl)-1,3-thiazol-5 yl]-2 pyridyl]benzamide]	151 to 152 °C
Cc1cccc(-c2nc(N(C)C(=O)c3cccnc3)sc2-c2ccnc(NC3CCCC3)c2)c1 [L 65-3, N-methyl-N-[5 (2-cyclopentylamino-4 pyridyl)-4 (3 methylphenyl)-1,3 thiazol-2-yl]nicotinamide]	150 to 151 °C
Cc1cccc(-c2nc(N(C)C(=O)c3cccnc3)sc2-c2ccnc(NC3CCCCC3)c2)c1 [L 65-4, N-methyl-N-[5 (2-cyclohexylamino-4 pyridyl)-4 (3 methylphenyl)-1,3 thiazol-2-yl]nicotinamide]	135 to 136 °C
Cc1cccc(-c2nc(N(C)C(=O)c3ccc(C)nc3)sc2-c2ccnc(NC3CCCC3)c2)c1 [L 67-2, N-[5 (2 cyclopentylamino-4-pyridyl)-4 (3 methylphenyl)-1,3 thiazol-2 yl]-N, 6-dimethylnicotinamide]	176 to 177 °C
Cc1nc(-c2cccc(Cl)c2)c(-c2ccnc(NC(=O)Cc3ccccc3)c2)s1 [L 68-3, N-[4 [4 (3 chlorophenyl)-2-methyl-1,3 thiazol-5 yl]-2 pyridyl]phenylacetamide]	99 to 101 °C
Cc1cccc(-c2nc(C)sc2-c2ccnc(NC(=O)Cc3ccccc3)c2)c1 [L 68-5, N-[4 [2 methyl-4 (3-methylphenyl)-1,3 thiazol-5 yl]-2 pyridyl]phenylacetamide]	114 to 115 °C
Cc1cccc(-c2ncsc2-c2ccnc(NC(=O)Cc3ccccc3)c2)c1 [L 68-6, N-[4 [4 (3 methylphenyl)-1,3 thiazol-5 yl]-2 pyridyl]phenylacetamide]	135 to 136 °C
CCc1nc(-c2ccc(F)cc2)c(-c2ccnc(NC(=O)Cc3ccccc3)c2)s1 [L 68-7, N-[4 [2 ethyl-4 (4-fluorophenyl)-1,3 thiazol-5 yl]-2 pyridyl]phenylacetamide]	178 to 179 °C
CCc1nc(-c2ccc(C)cc2)c(-c2ccnc(NC(=O)Cc3ccccc3)c2)s1 [L 68-8, N-[4 [2 ethyl-4 (4-methylphenyl)-1,3 thiazol-5 yl]-2 pyridyl]phenylacetamide]	128 to 129 °C
CCc1nc(-c2ccccc2)c(-c2ccnc(NC(=O)Cc3ccccc3)c2)s1 [L 68-9, N-[4 (2 ethyl-4 phenyl-1,3-thiazol-5 yl)-2 pyridyl]phenylacetamide]	162 to 163 °C
CCc1nc(-c2cccc(OC)c2)c(-c2ccnc(NC(=O)Cc3ccccc3)c2)s1 [L 68-10, N-[4 [2 ethyl-4 (3-methoxyphenyl)-1,3 thiazol-5 yl]-2 pyridyl)phenylacetamide]	128 to 129 °C
CCc1nc(-c2cccs2)c(-c2ccnc(NC(=O)c3ccccc3)c2)s1 [L 70-4, N-[4 [2 ethyl-4 (2-thienyl)-1,3 thiazol-5 yl]-2 pyridyl]benzamide]	116 to 117 °C
CC(=O)Nc1nc(-c2cc(C)cc(C)c2)c(-c2ccncc2)s1 [Reference Example A 23-128, N-[4-(3,5-dimethylphenyl)-5-(4-pyridyl)-1,3-thiazol-2-yl]acetamide]	284 to 286 °C
Cc1cc(C)cc(-c2nc(NC(=O)c3ccncc3)sc2-c2ccncc2)c1 [Reference Example A 23-200, N-[4-(3,5-dimethylphenyl)-5-(4-pyridyl)-1,3-thiazol-2-yl]isonicotinamide]	302 to 304 °C
